Assay results as given in ChEMBL document CHEMBL1201862, “PubChem BioAssay data set” (2004).
Structures can show the parent of a compound that is named as a salt. Activity calls are given as the source filed them.

What was measured:
[1] = Luminescence Cell-Based Dose Retest to Confirm Inhibitors of Cancer Stem Cells. [Related pubchem assays (depositor defined):AID2717, AID2721]; assay type: functional; conditions: Homo sapiens
Cytochrome P450 3A4 = Cytochrome P450 3A4 (Homo sapiens, UniProt P08684);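 further: CYP3A4 tested as one member of a cytochrome P450 panel screen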
Sequence of Cytochrome P450 3A4 (P08684 whole entry): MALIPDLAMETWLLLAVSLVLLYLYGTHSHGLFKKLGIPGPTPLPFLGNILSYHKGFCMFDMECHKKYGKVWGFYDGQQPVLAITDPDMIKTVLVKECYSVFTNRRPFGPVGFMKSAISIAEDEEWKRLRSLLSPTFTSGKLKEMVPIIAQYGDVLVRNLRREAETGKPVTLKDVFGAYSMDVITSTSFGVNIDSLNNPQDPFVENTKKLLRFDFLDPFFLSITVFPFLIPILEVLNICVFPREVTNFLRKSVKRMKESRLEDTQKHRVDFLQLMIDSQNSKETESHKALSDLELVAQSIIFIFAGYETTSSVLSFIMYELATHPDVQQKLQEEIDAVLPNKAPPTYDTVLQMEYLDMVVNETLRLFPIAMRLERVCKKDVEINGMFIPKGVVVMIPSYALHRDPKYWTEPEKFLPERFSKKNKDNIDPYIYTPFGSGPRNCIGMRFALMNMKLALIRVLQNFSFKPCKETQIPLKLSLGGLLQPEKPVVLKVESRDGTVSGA

Cytochrome P450 2C19 = Cytochrome P450 2C19 (Homo sapiens, UniProt P33261); assay: Cytochrome panel assay with activity outcomes. Panel member name: p450-cyp2c19 Compounds with AC50 equal or less than 10 uM are considered active; assay type: functional
Sequence of Cytochrome P450 2C19 (P33261 whole entry): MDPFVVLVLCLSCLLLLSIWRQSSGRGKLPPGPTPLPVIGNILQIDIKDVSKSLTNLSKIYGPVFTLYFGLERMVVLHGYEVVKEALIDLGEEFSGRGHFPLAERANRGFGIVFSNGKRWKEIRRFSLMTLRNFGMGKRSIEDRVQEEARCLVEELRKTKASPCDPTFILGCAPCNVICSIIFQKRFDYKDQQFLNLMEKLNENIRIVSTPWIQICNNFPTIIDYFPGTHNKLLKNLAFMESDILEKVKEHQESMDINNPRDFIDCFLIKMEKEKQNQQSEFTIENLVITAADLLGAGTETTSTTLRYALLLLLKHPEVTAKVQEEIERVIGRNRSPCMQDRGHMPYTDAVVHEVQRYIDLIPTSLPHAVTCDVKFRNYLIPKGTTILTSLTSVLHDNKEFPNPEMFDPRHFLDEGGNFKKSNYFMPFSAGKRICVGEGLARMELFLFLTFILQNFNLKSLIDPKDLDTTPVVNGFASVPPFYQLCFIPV

[2] = target: Luciferin 4-monooxygenase (Photinus pyralis, UniProt P08659); assay: firefly luciferase enzyme inhibitors, dose response, biochemical, luminescence (AID 1891)
Sequence of Luciferin 4-monooxygenase (P08659 whole entry): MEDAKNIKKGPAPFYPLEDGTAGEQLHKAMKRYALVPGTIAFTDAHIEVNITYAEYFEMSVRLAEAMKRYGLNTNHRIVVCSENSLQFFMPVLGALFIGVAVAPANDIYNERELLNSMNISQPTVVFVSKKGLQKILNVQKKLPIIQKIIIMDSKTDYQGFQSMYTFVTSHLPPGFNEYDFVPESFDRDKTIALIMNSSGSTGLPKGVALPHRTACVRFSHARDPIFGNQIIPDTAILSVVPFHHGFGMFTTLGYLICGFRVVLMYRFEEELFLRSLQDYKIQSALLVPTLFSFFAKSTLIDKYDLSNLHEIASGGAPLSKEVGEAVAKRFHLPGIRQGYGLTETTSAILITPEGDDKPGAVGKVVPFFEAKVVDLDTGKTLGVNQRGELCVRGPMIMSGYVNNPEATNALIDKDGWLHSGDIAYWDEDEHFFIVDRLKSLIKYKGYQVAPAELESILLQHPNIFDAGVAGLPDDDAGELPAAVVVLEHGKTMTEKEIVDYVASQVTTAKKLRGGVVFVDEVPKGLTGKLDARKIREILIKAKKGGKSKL

[3] = Luminescence Cell-Based Dose Confirmation HTS to Identify Inhibitors of Platelet Dense Granule Release. [Related pubchem assays: 1663 (Primary HTS), 1678 (Summary of Project)]; assay type: functional
INS1 = assay: beta cell apoptosis inhibitors, cytokine rescue, dose response, luminescence, retest (AID 449756); assay type: functional, cell-based; conditions: Rattus norvegicus;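 further: cell death triggered by IL-1 beta plus TNF-alpha plus IFN-gamma mixture; protective hits raise ATP signal compared with cytokine alone wells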
Cytochrome P450 2C9 = Cytochrome P450 2C9 (Homo sapiens, UniProt P11712)
Sequence of Cytochrome P450 2C9 (P11712 whole entry): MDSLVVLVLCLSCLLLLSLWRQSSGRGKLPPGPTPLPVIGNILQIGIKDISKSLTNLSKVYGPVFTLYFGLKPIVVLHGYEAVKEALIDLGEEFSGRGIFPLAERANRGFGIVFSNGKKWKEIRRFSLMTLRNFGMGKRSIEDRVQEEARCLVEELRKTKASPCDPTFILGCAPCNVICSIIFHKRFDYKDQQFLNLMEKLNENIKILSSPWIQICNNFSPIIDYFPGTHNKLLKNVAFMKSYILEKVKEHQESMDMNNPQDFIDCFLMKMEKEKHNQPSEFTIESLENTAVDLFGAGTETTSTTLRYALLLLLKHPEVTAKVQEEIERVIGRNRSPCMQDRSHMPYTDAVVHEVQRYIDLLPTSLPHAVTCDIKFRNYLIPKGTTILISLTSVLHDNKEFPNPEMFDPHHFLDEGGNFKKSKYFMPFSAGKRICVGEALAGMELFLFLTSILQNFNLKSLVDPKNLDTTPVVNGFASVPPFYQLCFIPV

[4] = target: T1, Replicative DNA helicase DnaB (Mycobacterium tuberculosis, UniProt P9WMR3); assay: DnaB intein splicing inhibitors, dose response, biochemical, cell-free fluorescence (AID 449749); assay type: functional
T1 sequence (P9WMR3 whole entry): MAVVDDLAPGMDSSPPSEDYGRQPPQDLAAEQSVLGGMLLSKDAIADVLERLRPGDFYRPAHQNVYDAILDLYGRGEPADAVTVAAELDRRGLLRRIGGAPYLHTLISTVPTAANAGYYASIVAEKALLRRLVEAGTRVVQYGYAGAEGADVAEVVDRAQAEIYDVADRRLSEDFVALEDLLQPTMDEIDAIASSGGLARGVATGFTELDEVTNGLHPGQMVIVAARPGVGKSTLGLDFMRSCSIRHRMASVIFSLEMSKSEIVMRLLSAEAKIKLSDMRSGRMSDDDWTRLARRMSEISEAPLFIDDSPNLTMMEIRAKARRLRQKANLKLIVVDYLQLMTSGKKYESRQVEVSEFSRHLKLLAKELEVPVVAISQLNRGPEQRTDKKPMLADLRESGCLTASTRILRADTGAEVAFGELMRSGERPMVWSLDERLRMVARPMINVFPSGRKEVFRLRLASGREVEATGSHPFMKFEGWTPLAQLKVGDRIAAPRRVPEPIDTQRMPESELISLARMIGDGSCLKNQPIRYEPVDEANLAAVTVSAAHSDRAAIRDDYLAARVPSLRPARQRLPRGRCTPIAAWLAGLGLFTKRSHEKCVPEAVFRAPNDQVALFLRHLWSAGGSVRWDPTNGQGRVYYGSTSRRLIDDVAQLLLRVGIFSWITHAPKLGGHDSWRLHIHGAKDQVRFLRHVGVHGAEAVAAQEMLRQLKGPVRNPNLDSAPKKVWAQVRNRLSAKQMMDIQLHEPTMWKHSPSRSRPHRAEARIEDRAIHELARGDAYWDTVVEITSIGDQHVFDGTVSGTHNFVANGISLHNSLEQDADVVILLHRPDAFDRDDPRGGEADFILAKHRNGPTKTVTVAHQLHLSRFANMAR

Protein RecA = target: T2, Protein RecA (Mycobacterium tuberculosis, UniProt P9WHJ3); assay: Fluorescence Cell-Free Homogeneous Dose Retest to Identify Inhibitors of RecA-Intein Splicing Activity. [Related pubchem assays (depositor defined):AID2097, AID2223, AID489010, AID492950]; assay type: functional
T2 sequence (P9WHJ3 whole entry): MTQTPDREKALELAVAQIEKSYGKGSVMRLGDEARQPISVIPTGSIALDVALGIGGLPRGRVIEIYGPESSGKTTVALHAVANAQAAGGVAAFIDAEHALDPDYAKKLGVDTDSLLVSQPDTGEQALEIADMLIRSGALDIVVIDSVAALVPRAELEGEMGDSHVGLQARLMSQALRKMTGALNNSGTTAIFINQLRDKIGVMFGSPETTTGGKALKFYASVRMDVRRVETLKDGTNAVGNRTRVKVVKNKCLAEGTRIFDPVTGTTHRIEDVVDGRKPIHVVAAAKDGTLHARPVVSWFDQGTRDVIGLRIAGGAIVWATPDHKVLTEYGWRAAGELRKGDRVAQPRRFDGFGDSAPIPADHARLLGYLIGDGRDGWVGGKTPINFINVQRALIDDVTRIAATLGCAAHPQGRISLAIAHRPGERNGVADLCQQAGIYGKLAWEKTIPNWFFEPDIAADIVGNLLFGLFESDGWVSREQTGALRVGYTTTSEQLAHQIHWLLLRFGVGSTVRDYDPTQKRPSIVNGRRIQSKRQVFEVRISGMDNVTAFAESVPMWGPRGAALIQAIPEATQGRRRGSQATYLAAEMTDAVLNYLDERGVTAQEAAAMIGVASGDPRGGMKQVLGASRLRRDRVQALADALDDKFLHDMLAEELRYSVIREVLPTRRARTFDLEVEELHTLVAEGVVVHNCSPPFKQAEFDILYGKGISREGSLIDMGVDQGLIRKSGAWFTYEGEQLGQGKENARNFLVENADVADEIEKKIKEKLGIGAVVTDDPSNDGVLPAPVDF

O=C(/C=C/c1ccco1)NCC1OCCc2ccccc21 (stereo unspecified)
AC50 [1]: > 195 µM (inactive)

CCOC(=O)CSc1ncc(OC)c(Sc2ccc(Cl)cc2)n1
AC50 (Cytochrome P450 3A4): 25.1 µM (inconclusive)

C[Se]C[C@@H](N)C(=O)O
AC50 (Cytochrome P450 2C19): inconclusive
AC50 (Cytochrome P450 3A4): 1.26 µM (inconclusive)

COc1cc2cc(CN(CCCO)S(=O)(=O)c3ccccc3Cl)c(O)nc2cc1OC
AC50 (Cytochrome P450 2C19; read-out: AC50): 39.8 µM (inconclusive)

O=C(Nc1ccc(S(=O)(=O)NCc2ccco2)cc1)c1ccc(F)cc1
EC50 [2]: > 112 µM (not active)
EC50 [3]: > 112 µM (not active)

N=C1O[C@@H](c2c[nH]c3ccc(OCc4ccccc4)cc23)C(O)=C1O
AC50 (Cytochrome P450 2C19; read-out: AC50): 6.31 µM (inconclusive)
AC50 (Cytochrome P450 3A4): 3.16 µM (inconclusive)

S=C(Nc1ccccc1Cl)N(CCCN1CCOCC1)Cc1ccco1
EC50 [2]: > 112 µM (not active)
EC50 [3]: > 112 µM (not active)

CCOC(=O)C1CCCN(C(=O)C2CCN(S(=O)(=O)N3CCC4(CC3)OCCO4)CC2)C1 (stereo unspecified)
AC50 (Cytochrome P450 2C19; read-out: AC50): 35.5 µM (inconclusive)
AC50 (Cytochrome P450 3A4): 20 µM (inconclusive)

CCNc1ncc2nc(CCc3ccccc3)c(=O)n(CCOC)c2n1
AC50 (Cytochrome P450 3A4): 15.8 µM (inconclusive)

CCC(C)OC(=O)C1=C(C)OC23OC(N)=C(C#N)C12C(=O)c1ccccc13 (stereo unspecified)
EC50 [2]: > 112 µM (not active)
EC50 [3]: > 112 µM (not active)

Cc1ccc(S(=O)(=O)Nc2ccc(C(OC(=O)c3ccccc3[N+](=O)[O-])(C(F)(F)F)C(F)(F)F)cc2)cc1
AC50 (INS1): 14.3 µM (active)
AC50 [1]: 6.11 µM (active)

O=C(c1ccccc1NS(=O)(=O)c1cccc([N+](=O)[O-])c1)N1CCOCC1
AC50 (Cytochrome P450 2C9): 7.94 µM (inconclusive)
AC50 (Cytochrome P450 3A4): 17.8 µM (inconclusive)

C#CCOc1ccc(OC)cc1C(c1c(C)n[nH]c1O)c1c(C)n[nH]c1O
AC50 [4]: 0.405 µM (active)
EC50 (Protein RecA): 0.187 µM (active)

C[C@H](CO)N1C[C@H](C)[C@H](CN(C)Cc2ccc(-c3ccccc3)cc2)Oc2ccc(NS(=O)(=O)c3ccccc3)cc2CC1=O
AC50 [1]: 5.07 µM (active)

Cc1cccc(/N=C2\C(Cl)=C(O)OC2OC(=O)c2ccco2)c1 (stereo unspecified)
AC50 [4]: 13.8 µM (active)
EC50 (Protein RecA): 12.9 µM (active)

CCOc1ccc(/C=N/NC(=O)c2ccoc2C)cc1OC
EC50 [2]: 28.3 µM (active)
EC50 [3]: 6.04 µM (active)

O=C(Nc1ccccc1C(=O)N/N=C/c1ccco1)c1ccc(Cl)cc1
EC50 [2]: 0.192 µM (active)
EC50 [3]: 10.9 µM (active)

CC(/C=C/c1ccco1)=N/NC(=O)c1ccccc1Cl
AC50 (Cytochrome P450 2C19; read-out: AC50): 39.8 µM (inconclusive)
AC50 (Cytochrome P450 3A4): 31.6 µM (inconclusive)

Cn1cc(/C=N/n2cnc3sc4c(c3c2=O)CCCC4)c2ccccc21
AC50 (Cytochrome P450 2C9): 39.8 µM (inconclusive)
AC50 (Cytochrome P450 3A4): 22.4 µM (inconclusive)

CCc1[nH]nc2c1C(Cc1ccccc1)C(C#N)=C(N)O2 (stereo unspecified)
AC50 [4]: 22.3 µM (active)
EC50 (Protein RecA): 6.37 µM (active)

Cc1c(O)cccc1C(=O)N[C@@H](CSc1ccccc1)[C@H](O)CN1C[C@H]2CCCC[C@H]2C[C@H]1C(=O)NC(C)(C)C [NELFINAVIR MESYLATE]
AC50 [1]: 4.22 µM (active)
